According to patent publication US20100120039A1, “METHODS AND COMPOSITIONS IN BREAST CANCER THERAPY RESISTANCE” (priority 2008, published 2010):
Values joined by “and” are separate entries in the source; they are usually repeats but may differ in a detail not shown here. Identical values can stand only once. “Also recorded” adds a separate entry of the source.

What was measured:
[1] = tested on: pAkt in K303R Arom 1 and 2 cells; assay: Immunoblot of phosphorylated Akt; format: cell-based, human; settings: for basal Akt phosphorylation: LY 10 μmol/L, PI-103 1 μmol/L, Akti1/2 1 μmol/L, 30 min
[2] = tested on: K303R ERα ERE-luciferase reporter; assay: ERα transactivation assay (ERE-luciferase) in CHO cells; format: cell-based, Chinese hamster; settings: LY 10 μmol/L or ICI 1 μmol/L
[3] = tested on: K303R Arom 1 and Arom 2 cells; assay: Anchorage-independent soft agar growth assay; format: cell-based, human; settings: for colony growth: ICI 182,780 1 μM; for AD-induced colony formation: AD 10 nmol/L + Ana 1 μmol/L, 14 days
MCF-7 Arom 1 cells [4] = assay: Anchorage-independent soft agar growth assay; format: cell-based, human; settings: for colony growth: ICI 182,780 1 μM
[5] = tested on: pAkt in MCF-7 Arom 1 cells; assay: Immunoblot of phosphorylated Akt; format: cell-based, human
[6] = tested on: phosphorylated HER2, Akt, MAPK in MCF-7 WT cells; assay: Immunoblot after S305 blocking peptide delivery and heregulin; format: cell-based, human; settings: peptide 4 μg/well 4 h, heregulin 10 min
[7] = tested on: phosphorylated S305 ERα, HER2, Akt, MAPK in MCF-7 K303R cells; assay: as above; format: cell-based, human; settings: peptide 4 μg/well 4 h, heregulin 10 min
[8] = tested on: MCF-7 K303R ERα-overexpressing cells; assay: Anchorage-independent soft agar growth assay; format: cell-based, human; settings: for reduction in colonies: Tam 100 nM
[9] = tested on: MCF-7 K303R ERα-expressing cells; assay: MTT growth assay with growth factors; format: cell-based, human
[10] = tested on: MCF-7 WT ERα-expressing cells; assay: MTT growth assay with growth factors; format: cell-based, human; settings: Tam alone
MCF-7 WT cells = assay: Anchorage-independent soft agar growth assay; format: cell-based, human; settings: Tam 100 nM, 14 days
[11] = tested on: AP-1 activity in MCF-7 K303R cells; assay: AP-1 luciferase reporter assay; format: cell-based, human
CHO K303R P cells = assay: Soft agar assay in stable pools; format: cell-based, Chinese hamster; settings: AD 10 nmol/L + Ana 1 μmol/L
[12] = tested on: K303R ERα-Arom pools (MCF-7); assay: Soft agar assay in stable pools; format: cell-based, human; settings: AD 10 nmol/L + Ana 1 μmol/L
[13] = tested on: PARP cleavage in MCF-7 Arom 1 cells; assay: Immunoblot of PARP proteolysis; format: cell-based, human; settings: AD 10 nmol/L + Ana 1 μmol/L, 24 h
[14] = tested on: PARP cleavage in K303R Arom 1 cells; assay: Immunoblot of PARP proteolysis; format: cell-based, human; settings: AD 10 nmol/L + Ana 1 μmol/L, 24 h
aromatase = biological target: T1, aromatase (Homo sapiens, UniProt P11511); assay: Aromatase activity assay (3H-water release); format: biochemical; settings: both cells (MCF-7 and MCF-7-K303R aromatase transfectants)
T1 construct: Full-length human aromatase cDNA was amplified from the pCMV6-Arom plasmid; expressed in transfected cells; host or cells: MCF-7 parental and YFP-K303R ERα MCF-7 clones, stably transfected with pZeo-Arom
T1 sequence (P11511 1-503): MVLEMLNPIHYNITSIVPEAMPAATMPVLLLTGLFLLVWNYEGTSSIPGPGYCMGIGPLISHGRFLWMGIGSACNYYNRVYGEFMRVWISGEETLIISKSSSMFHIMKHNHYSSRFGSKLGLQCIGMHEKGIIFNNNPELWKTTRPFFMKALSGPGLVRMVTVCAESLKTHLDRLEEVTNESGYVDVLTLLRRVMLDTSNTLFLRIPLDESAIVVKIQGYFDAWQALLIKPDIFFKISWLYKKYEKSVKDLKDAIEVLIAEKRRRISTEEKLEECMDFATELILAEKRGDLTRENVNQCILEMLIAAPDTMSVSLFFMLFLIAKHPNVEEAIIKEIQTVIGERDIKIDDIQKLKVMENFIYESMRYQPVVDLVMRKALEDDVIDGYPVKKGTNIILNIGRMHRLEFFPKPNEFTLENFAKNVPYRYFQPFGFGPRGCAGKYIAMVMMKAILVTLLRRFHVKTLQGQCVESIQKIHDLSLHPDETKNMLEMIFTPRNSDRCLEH

K303R Arom 1 cells [15] = assay: ELISA cell death detection assay; format: cell-based, human
MCF-7 Arom 1 cells [16] = assay: ELISA cell death detection assay; format: cell-based, human
K303R Arom 1 cells [17] = assay: MTT growth assay; format: cell-based, human; settings: AD 10 nM + Ana, 9 days, K303R mutant cells
MCF-7 Arom 1 cells [18] = assay: MTT growth assay; format: cell-based, human; settings: AD 10 nM + Ana, 9 days, WT ERα cells
[19] = AD 10 nmol/L + Ana 1 μmol/L versus AD

## Oc1cccc(-c2nc(N3CCOCC3)c3oc4ncccc4c3n2)c1 [PI-103]
[1]
  basal Akt phosphorylation: effectively blocked

## C[C@]12CC[C@@H]3c4ccc(O)cc4C[C@@H](CCCCCCCCC[S+]([O-])CCCC(F)(F)C(F)(F)F)[C@H]3[C@@H]1CC[C@@H]2O (stereo partly shown) [ICI 182,780, fulvestrant]
[2]
  ERE activity: inhibited
[3]
  colony growth: significantly suppressed
[3]; listed as ICI182,780
  colony growth: suppressed
MCF-7 Arom 1 cells [4]
  colony growth: significantly suppressed
MCF-7 Arom 1 cells [4]; listed as ICI182,780
  colony growth: suppressed
[1]; ICI 1 μmol/L, 1-30 min
  pAkt with short-term treatment: no changes
[1]; ICI 1-48 h
  pAkt levels: decrease
[5]; ICI182,780 1-48 h
  basal pAkt: not basal pAkt

## COc1cccc(-c2cc(=O)c3ccccc3o2)c1N [PD98059]
[3]; PD98059 10 μM
  antiproliferative effects on basal growth: not observed
  reversal of the AI^R phenotype: did not reverse
[3]; PD98059 10 μM, listed as PD
  reversal of the AI^R phenotype: unable to reverse

## O=c1[nH]c2ccccc2n1C1CCN(Cc2ccc(-c3nc4cc5nc[nH]c5cc4nc3-c3ccccc3)cc2)CC1 [Akti1/2, Akt inhibitor VIII isozyme-selective]
[3]; Akti1/2 1 μmol/L
  inhibition of growth: > 90%
MCF-7 Arom 1 cells [4]; Akti1/2 1 μmol/L
  inhibition of basal, AD-stimulated and Ana-stimulated growth: ~30%
[1]
  basal Akt phosphorylation: effectively blocked

## IKRSKKNSLALSC (blocking sequence) [S305 blocking peptide]
[6]
  heregulin-induced phosphorylation of downstream signaling molecules (HER2, Akt, MAPK): abrogated; also recorded: inhibited
[7]
  phosphorylation of the mutant receptor at S305: abrogated
[7]; more pronounced than in WT
  heregulin-induced phosphorylation of downstream signaling molecules (HER2, Akt, MAPK): abrogated; also recorded: inhibited

## CC/C(=C(\c1ccccc1)c1ccc(OCCN(C)C)cc1)c1ccccc1 [Tam, tamoxifen]
[8]; Tam, 14 days
  heregulin-induced anchorage-independent growth: unable to block; also recorded: failed to inhibit
[8]; estrogen (E2 1 nM)-stimulated, 14 days
  reduction in colonies: 54%
[8]; heregulin (2 ng/ml)-stimulated, 14 days
  reduction in colonies: 21%
[9]; Tam alone, MTT
  growth: enhanced
[9]; Tam with heregulin, EGF or IGF-1, MTT
  growth when stimulated with growth factors: super-agonist
[10]
  control growth: inhibited
MCF-7 WT cells; estrogen (E2 1 nM)-stimulated
  reduction in colonies: 78%
MCF-7 WT cells; heregulin (2 ng/ml)-stimulated
  reduction in colonies: 96%
[11]; presence of Tam
  growth factor-induced AP-1 activity: unable to reverse

## heregulin
[11]; only in mutant-expressing cells
  AP-1 activity: induced high AP-1 activity

## CC(C)(C#N)c1cc(Cn2cncn2)cc(C(C)(C)C#N)c1 [Ana, anastrozole]
CHO K303R P cells
  AD-stimulated growth: did not reverse
[12]
  AD-stimulated growth: unable to reduce; also recorded: further stimulated
[13]
  PARP proteolysis compared with AD treatment: increased proteolysis
[14]
  PARP cleavage: unchanged
aromatase
  reduction of aromatase activity: 95%
[3]
  AD-induced colony formation: did not inhibit; also recorded: unable to inhibit
[3]; listed as AN
  AD-induced colony formation: unable to inhibit
MCF-7 Arom 1 cells [4]; AD 10 nmol/L + Ana 1 μmol/L, 14 days
  AD-stimulated colony growth: completely abrogated
K303R Arom 1 cells [15]; [19]
  apoptotic response: no change
MCF-7 Arom 1 cells [16]; [19]
  cell apoptosis: significant increase
[1]; AD 10 nM + Ana 1 μM, 1 h
  constitutive pAkt levels: not affected; also recorded: unaffected
[5]; AD 10 nM + Ana 1 μM, 1 h
  AD-induced pAkt levels: reduced
K303R Arom 1 cells [17]
  effect on AD-stimulated growth: had no effect
MCF-7 Arom 1 cells [18]
  decrease of AD-stimulated growth: 47% and ~40%
MCF-7 Arom 1 cells [18]; listed as AN
  decrease of AD-stimulated growth: 40%

## O=c1cc(N2CCOCC2)oc2c(-c3ccccc3)cccc12 [LY294002]
K303R Arom 1 cells [15]; LY 10 μmol/L, 72 h
  increase in the apoptotic rate compared with AD: 3.6 fold
MCF-7 Arom 1 cells [16]; LY 10 μmol/L, 72 h
  apoptosis induction: 1.7 fold

## 17β-Estradiol [E2]
[8]; E2 10^−12, 14 days, p=0.005
  soft agar growth at lowest E2 concentration: significantly enhance
